Laboratory results: US20240082221A1, “COMPOSITIONS AND METHODS FOR THE IDENTIFICATION OF COMPOUNDS THAT PROTECT AGAINST LIPOFUSCIN CYTOTOXICITY” (priority 2021, published 2024)
“Also recorded” adds a separate entry of the source. Peptide text beside a SMILES is read from it. * marks the point of attachment. Cbz = O=C(OCc1ccccc1)*; CH2F = FC*

Experiments:
ARPE-19 cells = conditions: for protection against light-independent LF (A2E/ATRD) cytotoxicity, RPE survival: ARPE-19, inhibitor pretreatment, A2E/ATRD 24 h, no light; for protection against light-independent LF (A2E/ATRD) cytotoxicity, RPE survival / protection against lethal doses of A2E, viability: AlamarBlue; for cell death in ARPE19 cells exposed to the substance: light-independent; for protection against lethal doses of A2E, viability: ARPE19 pretreated 1 hr, then A2E 25 μM for 24 hrs in presence of drug
Description: Cell Viability Assay. […] 1× AlamarBlue solution prepared in OptiMEM was used to replace the media supernatant and the plate's fluorescence was determined at 555 nm excitation/585 nm emission with a SpectraMax M (Molecular Devices, CA, USA), after 1 h. […] The exact timing of appearance of far-red (DRAQ7=plasma membrane leakage) and blue (NUC405=caspase 3 activation) fluorescence signals was critical to differentiate apoptosis and necrosis from secondary events, such as membrane damage and generalized proteolytic activation during the late phase of apoptosis and necrosis, respectively.
Real time monitoring of necrotic and apoptotic cell-death. Cell-death assay to study Lipofuscin's dark toxicity was performed. 90% confluent ARPE-19 or hfRPE were incubated overnight in serum free media supplemented with indicated LB concentration. Viability was assessed at 24 hrs by AlamarBlue®, or microscopy with NUC405/DRAQ7. Real time monitoring of necrotic (red) and apoptotic (blue) cell-death was performed by automated fluorescence microscopy. The exact timing of appearance of far-red (DRAQ7=plasma membrane leakage) and blue (NUC405=caspase 3 activation) fluorescence signals was critical to differentiate apoptosis and necrosis from secondary events, such as membrane damage and generalized proteolytic activation during the late phase of apoptosis and necrosis, respectively.
Chemical inhibitors. Chemical inhibitors used in this study are described in FIG. 12.

human MLKL = assay: Western blot of Ser358 phospho-MLKL, phosphorylation and polymerization of MLKL; format: cell-based; conditions: for induction of phosphorylation and polymerization of MLKL: absence of light; for effect on LF-induced phosphorylation and polymerization of MLKL: non-reducing conditions, cells with A2E/ATRD
Description: (§1) Immunoblotting. Total cell lysates were extracted using RIPA lysis buffer (50 mM TrisHCl, Ph 8.0, 150 mM NaCl, 1% NP40, 0.5% Sodium Deoxycholate, 0.1% SDS, protease-phosphatase inhibitor) after the incubation of the specific sample group in a 48 well plate. Sonication or syringing (20 times) was done followed by centrifugation at 12,000×g for 10 mins and the supernatant was collected and stored in −80° C. Proten concentration from homogenates were assessed by Pierce Rapid Gold BCA protein assay kit (ThermoFisher Scientific, cat.no. A53225). Then 30 μg of protein was analyzed by standard SDS-PAGE gel. Samples were mixed 4:1 (v:v) with Nupage loading buffer with or without 8% 0-mercaptoethanol and heated for 10 min at 72° C. SDS-PAGE was done using 4-12% Nupage gel and buffer (Life, NP0335BOX). Next, SDS-PAGE gel was transferred to nitrocellulose membrane (Whatman, PROTAN BA83) overnight at 20V. The following day, 5% milk in TBS was used for 2 h blocking the membrane and then primary antibody was added in TBST (TBS, 0.1% Tween-20) for overnight at 4° C. Next day membranes were washed and incubated for 2 hours at room temperature with HRP conjugated secondary antibody (cat #G21234, Invitrogen) at 1:10,000 dilution. After 3 more washed membranes were probed with enhanced chemiluminescence (ECL) reagent and detected using an X-ray films for chemiluminescence image (GE healthcare, RPN2106). Scanning/imaging and quantitation of the image was done using silverfast 8 application software and Fiji Image J. Antibodies for Western blotting were list in FIG. 10.
For its phosphorylation, MLKL and its kinase need to be recruited into multiprotein complexes, known as necrosomes (FIG. 4O). Necrosomes are not well conserved among species and vary also with the nature of the stimuli that triggers their formation. […] Considering that phosphorylation of human MLKL at Ser358 (pMLKL), is a hallmark triggering event and marker of necroptosis, the Ser358-phosphorylation and polymerization status of MLKL in cells with LF was determined. […] A prerequisite for the assembly of these RIP kinases into necrosomes was their phosphorylation.

CHOP = assay: Western blot of CHOP upregulation (UPR, downstream of PERK); format: cell-based, Human; conditions: cells incubated with A2E
Description: as §1

cathepsin D = format: cell-based
From the text: (§2) Next, A2E buildups were imaged using a combination of DIC and fluorescence: A2E appeared as granules with well-defined edges, both within cells or after drying over a coverslip (FIGS. 14D and 14E). Next, the ability of the suspected A2E crystals to damage lysosomal membranes was investigated. A recently developed galectin-3 puncta assay for early detection of lysosomal membrane permeabilization (LMP) was used. Briefly, cytosolic galectin-3 rapidly binds to the glycocalyx in the luminal face of lysosomal membranes as they become leaky, which is easily detectable with anti-galectin high-affinity antibodies. L-Leucyl-L-Leucine methyl ester (LLO) a lysosomotropic peptide that causes LMP was used as positive control of puncta formation (FIG. 14E). […] LMP was confirmed by showing the […] of cathepsin D, as surrogate of lysosomal enzymes. […] Also, very remarkable was the observation that the same unique pattern of protection with arimoclomol and Nec-7 but not Nec-1 was observable for LLO (FIG. 14K), consistent with the idea that necroptosis by A2E is being caused by LMP.

lysosomal membranes = format: cell-based
From the text: as §2

ARPE19 cells = assay: ATR-induced light-independent cell death; format: cell-based, Human; conditions: pre-treatment with 33 μM
From the text: Overall, these indicate that necroptosis is a specific readout of ocular lipofuscin toxicity, easily distinguishable from the poisonous effects of ATR.

IRE1α = assay: qPCR of spliced XBP1 (XBP1s) as readout of IRE1α activity in ARPE-19; format: cell-based, Human; conditions: in the dark, qPCR
From the text: RNA isolation and quantitative PCR. Total RNA was extracted from cultured cells or mouse eye RPE layer using the RNeasy Mini kit (QIAGEN). The total RNA was digested with deoxyribonuclease I to prevent amplification of genomic DNA. The total RNA then was reversed transcribed using High-Capacity cDNA Reverse Transcription Kit (ThermoFisher Scientific, cat.no. 4368814) and analyzed gene expression using SYBR Green Master Mix (ThermoFisher Scientific, cat.no. 4472908) in an Applied Biosystems StepOne real time PCR machine. GAPDH was used as a reference gene. […] After genes were amplified by real time PCR, some of the PCR products were separated by 2.5% agarose gel.

[1] = tested on: UPR (PERK and ATF6 branches); assay: Western blot of ER-stress markers (p-eIF2a, ATF4, BiP, ATF6) without illumination; format: cell-based, Human
Description: as §1
The causal link between LF accumulation and ER-stress without light assistance was analyzed (FIG. 6A). […] The activation of the IRE1α branch was visualized by qPCR.

Compound: Cc1cc(=O)oc2c(C=O)c(O)ccc12 [4μ8C]
- protection against light-independent LF (A2E/ATRD) cytotoxicity, RPE survival (ARPE-19 cells): did not translate into survival

Compound: c1cc(Nc2cc(C3CC3)[nH]n2)nc(Nc2ccc3nc[nH]c3c2)n1 [APY29]
- protection against light-independent LF (A2E/ATRD) cytotoxicity, RPE survival (ARPE-19 cells): did not translate into survival

Compound: CC1=C(/C=C/C(C)=C/C=C/C(C)=C/C=O)C(C)(C)CCC1 [ATR, all-trans-retinal]
- cell death in ARPE19 cells exposed to the substance (ARPE-19 cells): Dose dependent cell death
- induction of phosphorylation and polymerization of MLKL (human MLKL): no increase in phosphorylation/polymerization of MLKL

Compound: COc1ccc(O)c(C(C)(C)C)c1 [BHA]
- protection against light-independent LF (A2E/ATRD) cytotoxicity, RPE survival (ARPE-19 cells): did not rescue

Compound: COc1cc(OC)c(/C=C/S(=O)(=O)Cc2ccc(OC)c(OP(=O)(O)O)c2)c(OC)c1 [Briciclib]
- protection against lethal doses of A2E, viability (ARPE-19 cells): did not confer significant protection

Compound: CC(C)S(=O)(=O)c1ccc2nccc(Nc3ccc4scnc4c3)c2c1 [GSK'872]
- protection against light-independent LF (A2E/ATRD) cytotoxicity, RPE survival (ARPE-19 cells): did not protect; also recorded: not affected
- effect on LF-induced phosphorylation and polymerization of MLKL (human MLKL): did not; also recorded: not affected
- effect on LF-induced upregulation of CHOP / UPR (CHOP): neither Nec1 nor GSK'872 effected the UPR

Compound: N=C(N)N/N=C/c1c(Cl)cccc1Cl [Guanabenz]
- protection against lethal doses of A2E, viability (ARPE-19 cells): did not confer significant protection

Compound: CC(C)c1nc(-c2ccc(NC(=O)Nc3cccc(C(F)(F)F)c3)c3ccccc23)c2c(N)nccn12 [KIRA3]
- protection against light-independent LF (A2E/ATRD) cytotoxicity, RPE survival (ARPE-19 cells): sufficient to protect against necroptosis by LF

Compound: COC(=O)[C@H](CC(C)C)NC(=O)[C@@H](N)CC(C)C [LLO, L-Leucyl-L-Leucine methyl ester]
- cathepsin-D activity (cathepsin D): caused reduction in cathepsin-D activity
- lysosomal membrane permeabilization (galectin-3 puncta) (lysosomal membranes): induced Lysosome membrane permeabilization (LMP)

Compound: CN1CCN(C(=O)c2ccc(-c3ccc4c(C=O)c(O)ccc4c3)s2)CC1 [MKC-3946]
- protection against light-independent LF (A2E/ATRD) cytotoxicity, RPE survival (ARPE-19 cells): did not translate into survival

Compound: CN1C(=O)C(Cc2c[nH]c3ccccc23)NC1=S (stereo not shown) [Nec1, Necrostatin-1]
- protection against light-independent LF (A2E/ATRD) cytotoxicity, RPE survival (ARPE-19 cells): not affected
- effect on LF-induced phosphorylation and polymerization of MLKL (human MLKL): did not block phosphorylation and polymerization of MLKL; also recorded: not affected
- effect on LF-induced upregulation of CHOP / UPR (CHOP): neither Nec1 nor GSK'872 effected the UPR
- effect on cell death by ATR (ARPE19 cells): did not block cell death

Compound: CN1C(=O)NC(Cc2c[nH]c3c(Cl)cccc23)C1=O (stereo not shown) [Nec1s]
- protection against light-independent LF (A2E/ATRD) cytotoxicity, RPE survival (ARPE-19 cells): not affected
- effect on LF-induced phosphorylation and polymerization of MLKL (human MLKL): not affected
- effect on cell death by ATR (ARPE19 cells): did not block cell death

Compound: Cc1cc(O)c(C(=O)/C=C/c2ccc(O)c([N+](=O)[O-])c2)c(=O)o1 [Nec2]
- protection against light-independent LF (A2E/ATRD) cytotoxicity, RPE survival (ARPE-19 cells): not affected
- effect on LF-induced phosphorylation and polymerization of MLKL (human MLKL): not affected

Compound: COc1ccc(-n2c(SCC#N)nc3sc4c(c3c2=O)CCCC4)cc1 [Nec5]
- protection against light-independent LF (A2E/ATRD) cytotoxicity, RPE survival (ARPE-19 cells): not affected
- effect on LF-induced phosphorylation and polymerization of MLKL (human MLKL): not affected

Compound: O=C(/C=C/c1ccccc1)NC(NC(=S)Nc1ccc(Cl)cc1)C(Cl)(Cl)Cl (stereo not shown) [SAL003]
- protection against lethal doses of A2E, viability (ARPE-19 cells): protected against lipofuscin

Compound: O=S(=O)(N=Cc1c(O)ccc2ccccc12)c1cccs1 [STF-0831]
- protection against light-independent LF (A2E/ATRD) cytotoxicity, RPE survival (ARPE-19 cells): did not translate into survival

Compound: CCC(=O)N1CCN(c2ccc(-n3c(=O)ccc4cnc5ccc(-c6cnc7ccccc7c6)cc5c43)cc2C(F)(F)F)CC1 [Torin-1]
- protection against lethal doses of A2E, viability (ARPE-19 cells): did not confer significant protection

Compound: [O-][n+]1cccc(/C(Cl)=N/OC[C@H](O)CN2CCCCC2)c1 [arimoclomol]
- protection against light-independent LF (A2E/ATRD) cytotoxicity, RPE survival (ARPE-19 cells): protects against necroptosis by lipofuscin
- effect on loss of cathepsin-D activity caused by A2E (cathepsin D): prevented

Compound: CC(C)(C)c1nc(-c2cccc(NS(=O)(=O)c3c(F)cccc3F)c2F)c(-c2ccnc(N)n2)s1 [dabrafenib]
- protection against light-independent LF (A2E/ATRD) cytotoxicity, RPE survival (ARPE-19 cells): increased RPE survival in a dose dependent manner

Compound: Cc1cc(Nc2cc(N)ncn2)c(=O)n2c1C(=O)NC21CCCCC1 [eFT508]
- protection against lethal doses of A2E, viability (ARPE-19 cells): did not confer significant protection

Compound: COc1nccnc1NS(=O)(=O)c1ccc(NC(=O)/C=C/c2ccc([N+](=O)[O-])s2)cc1 [necrosulfonamide]
- protection against light-independent LF (A2E/ATRD) cytotoxicity, RPE survival (ARPE-19 cells): increased RPE survival in a dose dependent manner

Compound: COC(=O)C[C@H](NC(=O)[C@H](C)NC(=O)[C@@H](NC(=O)OCc1ccccc1)C(C)C)C(=O)CF [z-VAD(OMe)-FMK] (Cbz-Val-Ala-Asp(OMe)-CH2F)
- protection against light-independent LF (A2E/ATRD) cytotoxicity, RPE survival (ARPE-19 cells): provided no protection

Compound: all-trans-retinal dimers [ATRD]
- cell death in ARPE19 cells exposed to the substance (ARPE-19 cells): Dose dependent cell death
- induction of phosphorylation and polymerization of MLKL (human MLKL): dose-dependent phosphorylation and polymerization of MLKL
- induction of XBP1s (IRE1α): dose and time-dependent inductions of XBP1s
- induction of ATF4 and BiP ([1]; without light): highest induction of ATF4 and BiP

Compound: methyl beta-cyclodextrins [MβCD]
- protection against A2E cytotoxicity by neutralization of detergent activity (ARPE-19 cells; 10 μM methyl-βCD, 20 μM A2E): did not protect against A2E

Compound: tunicamycin
- cleavage of ATF6 ([1]; 6 hrs treatment, 20 μM A2E): significant cleavage
